This is an account of results in patent US8889878B2, “Haloalky-substituted amides as insecticides and acaricides” (Bayer CropScience AG, priority 2009, dated 2014).

Each structure is given as a SMILES string.

One series in a line: logP by HPLC on reverse-phase column (EEC Directive 79/831 Annex V.A8). Format: physicochemical. The settings on record: HPLC, C18 reverse phase, 43° C., acidic range pH 2.7, calibration with alkan-2-ones. The protocol: The logP values reported in the above Tables and Preparation Examples were determined according to EEC Directive 79/831 Annex V.A8 by HPLC (High Performance Liquid Chromatography) on a reverse-phase column (C18). Temperature 43° C.
In the case of `CNC(=O)c1cc2cc(C(=O)NC(c3cccc(C(F)(F)F)c3)C(F)(F)F)n(C)c2cc1Cl` (racemic) [Ic-30], the logP entry was “HPLC-MS: logP = 3.2; mass (m/z):”.

Consider `O=C(/C=C/c1ccc(C(=O)NC2CC2)c(C(F)(F)F)c1)NC(c1cccc(Cl)c1)C(F)F` (stereo not shown) [Id-3], for which the logP entry is reported as “HPLC-MS: logP = 2.92; mass”.

Turning to `C#CC(C)NC(=O)c1cc2cc(C(=O)NC(c3cccc(C(F)(F)F)c3)C(F)(F)F)n(C)c2cc1Cl` (racemic) [Ic-31], the lipophilicity (logP) entry is listed as “HPLC-MS: logP = 3.73; mass”. Still for that read-out and setting: with `N#Cc1ccc2oc(C(=O)NC(c3ccc(Cl)cc3Cl)C(F)(F)F)cc2c1` (stereo not shown) [Ic-7] the entry was “HPLC-MS: logP = 4.04; mass”; with `CCC(=O)NCc1ccc2oc(C(=O)NC(c3cccc(C(F)(F)F)c3)C(F)(F)F)cc2c1` (stereo not shown) [Ic-14], “HPLC-MS: logP = 3.09; mass”; with `Cn1c(C(=O)NC(c2cccc(C(F)(F)F)c2)C(F)(F)F)cc2cc(C(=O)NC3CSC3)c(Cl)cc21` (racemic) [Ic-33], “HPLC-MS: logP = 3.82; mass”. As to `O=C(/C=C/c1ccc(C(=O)NC2CC2)c(C(F)(F)F)c1)NC(c1cccc(F)c1)C(F)F` (stereo not shown) [Id-2], the logP entry is “HPLC-MS: logP = 2.68; mass”. Same read-out and setting: then `N#Cc1ccc2oc(C(=O)NC(c3ccc(Cl)c(Cl)c3)C(F)(F)F)cc2c1` (stereo not shown) [Ic-5], with “HPLC-MS: logP = 3.95; mass”.

Still in this series, the particulars now being: HPLC-MS.
For `CS(=O)(=O)c1cccc(C(NC(=O)/C=C/c2ccc(C(=O)Nc3ccccn3)c(C(F)(F)F)c2)C(F)(F)F)c1` (stereo not shown) [Ia-244], the logP entry is listed as “HPLC-MS: logP = 2.62; mass”. For `O=C(/C=C/c1ccc(C(=O)NCc2ccccn2)c(C(F)(F)F)c1)NC(c1ccc([N+](=O)[O-])cc1)C(F)(F)F` (stereo not shown) [Ia-34], the logP result is reported as “HPLC-MS: logP = 2.93; mass”. For the compound `O=C(/C=C/c1ccc(NC(=O)c2cccnc2Cl)cc1)NC(c1cc(Cl)cc(Cl)c1)C(F)(F)F` (stereo not shown) [Ia-2], the logP result was “HPLC-MS: logP = 3.69; mass”. Same read-out and setting: with `O=C(/C=C/c1ccc(C(=O)Nc2cccnn2)c(Cl)c1)NC(c1cccc(C(F)(F)F)c1)C(F)(F)F` (stereo not shown) [Ia-217] the entry was “HPLC-MS: logP = 3.29; mass”; with `O=C(/C=C/c1ccc(C(=O)NC2CC2)c(Cl)c1)NC(c1cccc(C(F)(F)F)c1)C(F)(F)F` (stereo not shown) [Ia-118], “HPLC-MS: logP = 3.24; mass”. Same read-out and setting: then `CC(=O)NCc1ccc(/C=C/C(=O)NC(c2cccc(C(F)(F)F)c2)C(F)(F)F)cc1C` (stereo not shown) [Ia-249], with “HPLC-MS: logP = 2.9; mass”; and `O=C(/C=C/c1ccc(C(=O)NCc2ccccn2)c(C(F)(F)F)c1)NC(c1cccc([N+](=O)[O-])c1)C(F)(F)F` (stereo not shown) [Ia-33], with “HPLC-MS: logP = 2.93; mass”. Turning to `Cc1cc(/C=C/C(=O)NC(c2cccc(C(F)(F)F)c2)C(F)(F)F)ccc1C(=O)NC1CC1` (stereo not shown) [Ia-11], the lipophilicity (logP) entry is “HPLC-MS: logP = 3.02; mass”. On to `CC(=O)Nc1ccc(/C=C/C(=O)NC(c2cccc(C(F)(F)F)c2)C(F)(F)F)cc1` (stereo not shown) [Ia-3], for which the lipophilicity (logP) entry is listed as “HPLC-MS: logP = 2.95; mass”. Still for that read-out and setting: then `COC(=O)c1ccc(/C=C/C(=O)NC(c2cccc(C(F)(F)F)c2)C(F)(F)F)cc1C` (stereo not shown) [Ia-26], with “HPLC-MS: logP = 4.09; mass”; and `Cn1ccc(CNC(=O)c2ccc(/C=C/C(=O)NC(c3cccc(C(F)(F)F)c3)C(F)(F)F)cc2Cl)n1` (stereo not shown) [Ia-186], with “HPLC-MS: logP = 2.95; mass”. Still for that read-out and setting: then `Cc1cccc(C(NC(=O)/C=C/c2ccc(C(=O)NC3CC3)c(C(F)(F)F)c2)C(F)(F)F)c1` (stereo not shown) [Ia-232], with “HPLC-MS: logP = 3.17; mass”; and `O=C(/C=C/c1ccc(C(=O)Nc2ccccn2)c(C(F)(F)F)c1)NC(c1cccc(Cl)c1)C(F)(F)F` (stereo not shown) [Ia-246], with “HPLC-MS: logP = 3.37; mass”.

With `O=C(/C=C/c1ccc(C(=O)NC2CC2)cc1Cl)NC(c1cccc(Cl)c1)C(F)(F)F` (stereo not shown) [Ia-234], the logP entry is “HPLC-MS: logP = 3.3; mass”. The same measure, in the same setting: with `O=C(/C=C/c1ccc(C(=O)NC2C[S+]([O-])C2)c(C(F)(F)F)c1)NC(c1cccc(C(F)(F)F)c1)C(F)(F)F` (stereo not shown) [Ia-227] the entry was “HPLC-MS: logP = 2.71; mass”; with `O=C(/C=C/c1ccc(C(=O)NC2CC2)c(C(F)(F)F)c1)NC(c1cccc(Cl)c1)C(F)(F)F` (stereo not shown) [Ia-231], “HPLC-MS: logP = 3.22; mass”.

The same series, now with this note: HPLC-MS; HPLC on reverse-phase column.
On to `O=C(/C=C/c1ccc(CNC(=O)C2COC(=O)C2)c(C(F)(F)F)c1)NC(c1cccc(C(F)(F)F)c1)C(F)(F)F` (stereo not shown) [Ia-269], for which the log partition coefficient (logP) entry is listed as “HPLC-MS: logP = 3.34; mass”.

Consider `O=C(/C=C/c1ccc(CNC(=O)c2ccsc2)c(C(F)(F)F)c1)NC(c1cccc(C(F)(F)F)c1)C(F)(F)F` (stereo not shown) [Ia-268], for which the logP entry is on record as “HPLC-MS: logP = 3.92; mass”. Still for that read-out and setting: then `CC1CC1NC(=O)c1ccc(C=CC(=O)NC(c2cccc(C(F)(F)F)c2)C(F)(F)F)cc1C(F)(F)F` (stereo not shown) [Ia-261], with “HPLC-MS: logP = 3.46; mass”.

Still in this series, the particulars now being: pH 2.7.
Compound `O=C(O)/C=C/c1ccc(C(=O)NCc2ccccn2)c(C(F)(F)F)c1` [(2E)-3-[4-(Pyridin-2-ylmethyl)carbamoyl)-3-trifluoromethylphenyl]acrylic acid] displayed a lipophilicity (logP) of 0.91.

The series is the same for the next values; noted with them: reverse-phase C18 HPLC column, pH 2.7, HPLC, C18 reverse phase, 43° C., acidic range pH 2.7, calibration with alkan-2-ones.
The compound `O=C(NCc1ccccn1)c1ccc(Br)cc1C(F)(F)F` [4-Bromo-N-(pyridin-2-ylmethyl)-2-(trifluoromethyl)benzamide] returned a chromatographic logP of 1.56.

As to `NC(c1cc(Cl)cc(C(F)(F)F)c1)C(F)(F)F` (stereo not shown) [1-[3-Chloro-5-(trifluoromethyl)phenyl]-2,2,2-trifluoroethanamine], the chromatographic logP was 2.94. On the same count and under the same terms, with `O=C(NC1CC1)c1ccc(Br)cc1C(F)(F)F` [4-Bromo-N-cyclopropyl-2-(trifluoromethyl)benzamide] the figure was 2.13; with `N#Cc1cc(/C=C/C(=O)O)ccc1-n1cncn1` [(2E)-3-[3-Cyano-4-(1H-1,2,4-triazol-1-yl)phenyl]acrylic acid], 0.97. Still for that read-out and setting: then `NC1CCc2cc(/C=C/C(=O)NC(c3cccc(C(F)(F)F)c3)C(F)(F)F)ccc21` (stereo not shown) [(2E)-3-(1-Amino-2,3-dihydro-1H-inden-5-yl)-N-{2,2,2-trifluoro-1-[3-(trifluoromethyl)phenyl]-ethyl}acrylamide], with 1.7. The compound `O=C(NC1CC1)c1cnc(I)cc1C(F)(F)F` [N-Cyclopropyl-6-iodo-4-(trifluoromethyl)nicotinamide] returned a chromatographic logP of 1.92. On the same count and under the same terms, with `O=C(O)/C=C/c1ccc(C(=O)NC2CC2)c(C(F)(F)F)c1` [(2E)-3-[4-(Cyclopropylcarbamoyl)-3-trifluoromethylphenyl]acrylic acid] the figure was 1.34. On the same count and under the same terms, with `CC(C)(C)OC(=O)c1ccc(C=O)c(O)c1` [tert-Butyl 4-formyl-3-hydroxybenzoate] the figure was 3.11; with `O=C(NCc1ccccc1)c1ccc(Br)cc1C(F)(F)F` [N-Benzyl-4-bromo-2-(trifluoromethyl)benzamide], 2.89; with `Cc1cc(Br)ccc1C(=O)NCc1ccccn1` [4-Bromo-2-methyl-N-(pyridin-2-ylmethyl)benzamide], 1.4. For the compound `CCOC(=O)c1cc2cc(C(=O)NC(c3cccc(C(F)(F)F)c3)C(F)(F)F)n(C)c2cc1Cl` (stereo not shown) [Ethyl 6-chloro-1-methyl-2-({2,2,2-trifluoro-1-[3-(trifluoromethyl)phenyl]ethyl}carbamoyl)-1H-indole-5-carboxylate], the chromatographic logP amounted to 4.74. Still for that read-out and setting: with `CN(C(=O)/C=C/c1ccc(C#N)cc1)C(c1cccc(C(F)(F)F)c1)C(F)(F)F` (stereo not shown) [Ia-25, (2E)-3-(4-Cyanophenyl)-N-methyl-N-{2,2,2-trifluoro-1-[3-(trifluoromethyl)phenyl]-ethyl}acrylamide] the figure was 4.01.

One may read the logP as a log measure of how a compound divides between an organic and an aqueous phase. Usually chromatographic logP stands for a lipophilicity value derived from retention on a column. Low values mean a more hydrophilic compound, high ones a more lipophilic compound.
